Measured values taken from patent US4939137A, “Ring-fused thienopyrimidinedione derivatives” (Ortho Pharmaceutical Corporation, priority 1989, dated 1990).
Each block holds one compound with its values, some of them ahead of it.

Columns and labels:
[1] = test system: spontaneously hypertensive rats (SHR); assay: Antihypertensive Activity: Spontaneously Hypertensive Rat (SHR test); assay type: in vivo, rat (male spontaneously hypertensive); conditions: p.o. or i.v.; for change in vivo at 5 mg/kg: dose 5 mpk
Experimental: Mean arterial pressure and heart rate were monitored from directly cannulated animals. Compounds were administered p.o. or i.v. and blood pressure was recorded for various time intervals post dosing.
Blood pressure changes (expressed as change in control pressure and reported as delta % of control for each animal) were analyzed statistically using a one way analysis of variance with a Dunnett's test. P values less than 0.05 were considered significant.

[2] = target: alpha-1 adrenergic receptor; assay: Brain Alpha-1 Radioreceptor Assay (3H-prazosin); conditions: guinea pig brain membranes, 30 minutes, 30° C., read-out: RECEPTOR BINDING ALPHA-1 (IC50)
Experimental: Membrane fragments were prepared from the brains of mature female guinea pigs after removal of the corpus striata. The alpha-1 adrenergic receptor sites were labeled with ^3 H-prazosin. Membrane fragments, ^3 H-prazosin and an unlabeled test compound were incubated for 30 minutes at 30° C. Compound bound to the receptor site was separated from the remaining unbound radioligand by vacuum filtration. Specific binding was determined by the difference between total counts bound and counts bound in the presence of 10-^5 M phentolamine.

[3] = target: T1, 5HT1A receptor (Rattus norvegicus, UniProt P19327); assay: Brain Serotonin 5HT1A Radioreceptor Assay (3H-80H-DPAT); assay type: binding; conditions: rat frontal cortex membranes, 10 minutes, 37° C., read-out: RECEPTOR BINDING 5HT-1A (IC50)
T1 construct: Membrane fragments were prepared from the frontal cortex dissected from brains obtained from female rats; from tissue; host or cells: frontal cortex, female rats
T1 sequence (P19327 1-422): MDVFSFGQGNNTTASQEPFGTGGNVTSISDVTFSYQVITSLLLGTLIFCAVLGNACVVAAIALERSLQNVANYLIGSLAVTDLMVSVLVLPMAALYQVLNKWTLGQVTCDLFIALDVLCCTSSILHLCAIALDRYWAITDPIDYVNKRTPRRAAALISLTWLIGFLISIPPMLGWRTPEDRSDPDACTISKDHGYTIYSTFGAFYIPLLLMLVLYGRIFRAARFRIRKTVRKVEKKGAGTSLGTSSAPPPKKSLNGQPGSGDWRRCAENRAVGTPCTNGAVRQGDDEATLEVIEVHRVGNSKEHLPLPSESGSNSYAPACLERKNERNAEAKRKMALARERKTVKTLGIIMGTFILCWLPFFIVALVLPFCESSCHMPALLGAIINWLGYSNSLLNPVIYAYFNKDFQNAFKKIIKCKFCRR
Experimental: Membrane fragments were prepared from the frontal cortex dissected from brains obtained from female rats (~150 g). The 5HT1A sites were labeled with ^3 H-80H-dipropylaminotetralin (^3 H-80H-DPAT). Membrane fragments, ^3 H-80H-DPAT and an unlabeled test compound were incubated for 10 minutes at 37° C. The tubes were then placed in an ice bath for an additional 10 minutes. Compound bound to the receptor site was separated from the remaining unbound compound by vacuum filtration.
The ability of a nonlabeled compound to compete with ^3 H-80H-DPAT for binding sites was a measure of the compound's affinity for the 5HT1A receptor. Specific binding was determined by the difference between total counts bound and counts bound in the presence of 10^-5 M serotonin.
Data are presented at the IC50, the concentration of nonlabeled compound required to displace 50% of the ^3 H-80H-DPAT specifically bound to 5HT1A binding sites.

[4] = test system: alpha adrenergic receptor; assay: Alpha-1 Adrenergic Blockage: Inhibition of Phenylephrine-Induced Increases in Blood Pressure in the Anesthetized Dog; assay type: in vivo; conditions: i.v., phenylephrine 10 μg/kg
Source text: Dogs were anesthetized and bilaterally vagotomized. A femoral artery and vein were cannulated for detection of diastolic blood pressure and drug administration, respectively. Percent inhibition of alpha adrenergic receptor antagonism was quantified by determining dose-response (increase in diastolic pressure) relationship of phenylephrine before and after various doses of the antagonist.

[5] = target: T2, 5HT2 receptor (Rattus norvegicus, UniProt P14842); assay: Brain Serotonin 5HT2 Radioreceptor Assay (3H-ketanserin); assay type: binding; conditions: rat frontal cortex membranes, 15 minutes, 37° C., read-out: RECEPTOR BINDING 5HT-2 (IC50)
T2 construct: Membrane fragments were prepared from the frontal cortex dissected from brains obtained from female rats; from tissue; host or cells: frontal cortex, female rats
T2 sequence (P14842 whole entry, the tested form may be a part): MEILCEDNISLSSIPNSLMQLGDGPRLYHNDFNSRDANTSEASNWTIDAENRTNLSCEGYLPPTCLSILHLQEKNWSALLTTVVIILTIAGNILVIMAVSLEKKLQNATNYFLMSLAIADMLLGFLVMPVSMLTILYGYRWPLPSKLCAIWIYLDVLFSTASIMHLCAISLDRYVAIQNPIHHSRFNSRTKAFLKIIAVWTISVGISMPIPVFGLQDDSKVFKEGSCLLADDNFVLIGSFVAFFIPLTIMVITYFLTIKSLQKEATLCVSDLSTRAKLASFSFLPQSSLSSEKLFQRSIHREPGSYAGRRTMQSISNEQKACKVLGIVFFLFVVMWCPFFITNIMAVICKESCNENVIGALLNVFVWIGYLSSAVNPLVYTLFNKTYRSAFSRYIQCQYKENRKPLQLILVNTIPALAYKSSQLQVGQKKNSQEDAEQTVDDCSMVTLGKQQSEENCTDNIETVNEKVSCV
Experimental: Membrane fragments were prepared from the frontal cortex dissected from brains obtained from female rats (~150 g). The 5HT2 sites were labeled with ^3 H-ketanserin. Membrane fragments, ^3 H-ketanserin and an unlabeled test compound were incubated for 15 minutes at 37° C. Compound bound to the receptor site was separated from the remaining unbound compound by vacuum filtration.
The ability of a nonlabeled compound to compete with ^3 H-ketanserin for binding sites was a measure of the compound's affinity for the 5HT2 receptor. Specific binding was determined by the difference between total counts bound and counts bound in the presence of 10^-6 M methysergide.
Data are presented as the IC50, the concentration of nonlabeled compound required to displace 50% of the ^3 H-ketanserin specifically bound to 5HT2 binding sites.

[6] = Rattus norvegicus, read-out: SHR TEST: change in blood pressure (delta % of control)

SMILES: COc1ccccc1N1CCN(CCn2c(=O)c3csc4c3n(c2=O)CCC4=O)CC1 [Example 1, 3,4,5,7,8,9-Hexahydro-4-[2-[4-(2-methoxyphenyl)piperazin-1-yl]ethyl]thieno[4,3,2-de]pyrido[1,2c]pyrimidine-3,5,9-trione]
- SHR TEST: change in mean arterial blood pressure ([1]; dose 2.5 mpk): -59 mm Hg
- IC50 [2]: 18 nM
- IC50 [3]: 25 nM
- % INHIB OF PHENYLEPHRINE RESPONSE ([4]; dose 0.03 mpk): 86%
- IC50 [5]: 6500 nM

SMILES: Cc1ccccc1N1CCN(CCn2c(=O)c3csc4c3n(c2=O)CCC4=O)CC1 [Example 2, 3,4,5,7,8,9-Hexahydro-4-[2-[4-(2-methylphenyl)piperazin-1-yl]ethyl]thieno[4,3,2-de]pyrido[1,2-c]pyrimidine-3,5,9-trione]
- change in vivo at 5 mg/kg [1, 6]: -33%
- % INHIB OF PHENYLEPHRINE RESPONSE ([4]; dose 0.03 mpk): 83%

SMILES: O=C1CCn2c(=O)n(CCN3CCN(c4ccccc4Cl)CC3)c(=O)c3csc1c32 [Example 3, 4-[2-[4-(2-Chlorophenyl)piperazin-1-yl]ethyl]3,4,5,7,8,9-hexahydrothieno[4,3,2-de]pyrido[1,2-c]pyrimidine-3,5,9-trione]
- % INHIB OF PHENYLEPHRINE RESPONSE ([4]; dose 0.03 mpk): 55%

SMILES: O=C1CCn2c(=O)n(CCN3CCN(c4ccccc4)CC3)c(=O)c3csc1c32 [Example 4, 3,4,5,7,8,9-Hexahydro-4-[2-(4-phenylpiperazin-1-yl)ethyl]thieno[4,3,2-de]pyrido[1,2-c]pyrimidine-3,5,9-trione]
- % INHIB OF PHENYLEPHRINE RESPONSE ([4]; dose 0.03 mpk): 88%

SMILES: COc1cccc(N2CCN(CCn3c(=O)c4csc5c4n(c3=O)CCC5=O)CC2)c1 [Example 5, 3,4,5,7,8,9-Hexahydro-4-[2-[4-(3-methoxyphenyl)piperazin-1-yl]ethyl]thieno[4,3,2-de]pyrido[1,2-c]pyrimidine-3,5,9-trione]
- % INHIB OF PHENYLEPHRINE RESPONSE ([4]; dose 0.03 mpk): 41%

SMILES: COc1ccc(N2CCN(CCn3c(=O)c4csc5c4n(c3=O)CCC5=O)CC2)cc1 [Example 8, 3,4,5,7,8,9-Hexahydro-4-[2-[4-(4-methoxyphenyl)piperazin-1-yl]ethyl]thieno[4,3,2-de]pyrido[1,2-c]pyrimidine-3,5,9-trione]
- % INHIB OF PHENYLEPHRINE RESPONSE ([4]; dose 0.03 mpk): 40%

SMILES: COc1ccccc1N1CCN(CCn2c(=O)c3c(C)sc4c3n(c2=O)CCC4=O)CC1 [Example 13, 3,4,5,7,8,9-Hexahydro-2-methyl-4-[2-[4-(2-methoxyphenyl)piperazin-1-yl]ethyl]thieno[4,3,2-de]pyrido[1,2-c]pyrimidine-3,5,9-trione]
- % INHIB OF PHENYLEPHRINE RESPONSE ([4]; dose 0.03 mpk): 88%

SMILES: COc1ccccc1N1CCN(CCn2c(=O)c3scc4c3n(c2=O)CCC4=O)CC1 [Example 14, 7.8-Dihydro-4-[2-[4-(2-methoxyphenyl)-piperazin-1-yl]ethyl]thieno[2,3,4-de]pyrido[1,2-c]pyrimidine-3,5,9-trione]
- change in vivo at 5 mg/kg [1, 6]: -30%
- IC50 [2]: 6 nM
- IC50 [3]: 66 nM
- IC50 [5]: 1500 nM

SMILES: COc1ccccc1N1CCN(CCn2c(=O)c3csc4c3n(c2=O)CCC4O)CC1 (stereo not drawn) [Example 21, 3,4,5,7,8,9-Hexahydro-9-hydroxy-4-[2-[4-(2-methoxyphenyl)piperazin-1-yl]ethyl]thieno[4,3,2-de]pyrido[1,2-c]pyrimidine-3,5-dione]
- change in vivo at 5 mg/kg [1, 6]: -24.7%
- % INHIB OF PHENYLEPHRINE RESPONSE ([4]; dose 0.03 mpk): 96%

SMILES: COc1ccccc1N1CCN(CCn2c(=O)c3csc4c3n(c2=O)CC=C4)CC1 [Example 24, 3,4,5,7-Tetrahydro-4-[2-[4-(2-methoxyphenyl)piperazin-1-yl]ethyl]thieno[4,3,2-de]pyrido[1,2-c]pyrimidine-3,5-dione]
- SHR TEST: change in mean arterial blood pressure ([1]; dose 2.5 mpk): -59.0 mm Hg
- IC50 [2]: 23 nM
- IC50 [3]: 120 nM
- % INHIB OF PHENYLEPHRINE RESPONSE ([4]; dose 0.03 mpk): 98%
- IC50 [5]: 2000 nM

SMILES: COc1ccccc1N1CCN(CCn2c(=O)c3csc4c3n(c2=O)CCNC4=O)CC1 [Example 25]
- SHR TEST: change in mean arterial blood pressure ([1]; dose 2.5 mpk): -58.0 mm Hg
- IC50 [2]: 45 nM
- IC50 [3]: 48 nM
- % INHIB OF PHENYLEPHRINE RESPONSE ([4]; dose 0.003 mpk): 94%
- IC50 [5]: 2000 nM

- IC50 [2]: 40 nM
- IC50 [3]: 0.72 nM
- IC50 [5]: 2000 nM
SMILES: CON=C1CCn2c(=O)n(CCN3CCN(c4ccccc4OC)CC3)c(=O)c3csc1c32 [Example 26, 3,4,5,7,8,9-Hexahydro-9-methoxyimino-4-[2-[4-(2-methoxyphenyl)piperazin-1-yl]ethyl]-thieno[4,3,2-de]pyrido[1,2-c]pyrimidine-3,5-dione]
- % INHIB OF PHENYLEPHRINE RESPONSE ([4]; dose 0.03 mpk): 72%

SMILES: COc1ccccc1N1CCN(CCn2c(=O)c3csc4c3n(c2=O)CCC4OC(C)=O)CC1 (stereo not drawn) [Example 30, 9-Acetyloxy-3,4,5,7,8,9-hexahydro-4-[2-[4-(2-methoxyphenyl)piperazin-1-yl]ethyl]thieno[4,3,2-de]pyrido[1,2-c]pyrimidine-3,5-dione]
- change in vivo at 5 mg/kg [1, 6]: -33.2%
- % INHIB OF PHENYLEPHRINE RESPONSE ([4]; dose 0.03 mpk): 100%

SMILES: CCCC(=O)OC1CCn2c(=O)n(CCN3CCN(c4ccccc4OC)CC3)c(=O)c3csc1c32 (stereo not drawn) [Example 31]
- % INHIB OF PHENYLEPHRINE RESPONSE ([4]; dose 0.03 mpk): 100%

SMILES: CCCCCC(=O)OC1CCn2c(=O)n(CCN3CCN(c4ccccc4OC)CC3)c(=O)c3csc1c32 (stereo not drawn) [Example 32, 3,4,5,7,8,9-Hexahydro-4-[2-[4-(2-methoxyphenyl)piperazin-1-yl]ethyl]-9-(hexanoyloxy)thieno[4,3,2-de]pyrido[1,2-c]pyrimidine-3,5-dione]
- % INHIB OF PHENYLEPHRINE RESPONSE ([4]; dose 0.03 mpk): 90%

SMILES: COc1ccccc1N1CCN(CCn2c(=O)c3csc4c3n(c2=O)CCC4OC(=O)c2ccccc2)CC1 (stereo not drawn) [Example 35, 9-Benzoyloxy-3,4,5,7,8,9-hexahydro-4-[2-[4-(2-methoxyphenyl)piperazin-1-yl]ethyl]thieno[4,3,2-de]pyrido[1,2-c]pyrimidine-3,5-dione]
- change in vivo at 5 mg/kg [1, 6]: -16.6%
- IC50 [2]: 0.015 nM
- IC50 [3]: 130 nM
- % INHIB OF PHENYLEPHRINE RESPONSE ([4]; dose 0.03 mpk): 89%
- IC50 [5]: 1500 nM

SMILES: COc1ccccc1N1CCN(CCn2c(=O)c3csc4c3n(c2=O)CCC4N)CC1 (stereo not drawn) [Example 38, 9-Amino-3,4,5,7,8,9-hexahydro-4-[2-[4-(2-methoxyphenyl)piperazin-1-yl]ethyl]thieno[4,3,2-de]pyrido[1,2-c]pyrimidine-3,5-dione]
- change in vivo at 2.5 mg/kg ([1]; Rattus norvegicus, dose 2.5 mpk, read-out: SHR TEST: change in blood pressure (delta % of control)): -30.1%
- IC50 [2]: 10 nM
- IC50 [3]: 50 nM
- IC50 [5]: 800 nM
